Biological target: T1, Acetaldehyd-Dehydrogenase PS-DmpF (Pseudomonas sp., UniProt Q52060)
T1 construct: made in house; host or cells: E. coli BL21 (DE3), vector pET-21a(+)
T1 sequence (Q52060 1-312): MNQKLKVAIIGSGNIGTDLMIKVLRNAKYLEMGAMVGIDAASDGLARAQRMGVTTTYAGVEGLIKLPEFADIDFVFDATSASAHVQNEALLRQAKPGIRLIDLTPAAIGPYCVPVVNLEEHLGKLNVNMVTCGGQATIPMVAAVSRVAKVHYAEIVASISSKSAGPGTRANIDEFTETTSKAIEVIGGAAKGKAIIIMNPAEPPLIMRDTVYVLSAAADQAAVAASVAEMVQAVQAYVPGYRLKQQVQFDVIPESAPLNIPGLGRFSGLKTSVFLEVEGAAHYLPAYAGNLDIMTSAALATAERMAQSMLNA
Assay: photometric test of inhibition of PS-DmpF by Crotonyl-CoA in mixtures with Butyryl-CoA
Assay type: biochemical
Conditions: Butyryl-CoA and Crotonyl-CoA mixed in different ratios, Figur 4
From the text: Im Rahmen der Photometertests wurde festgestellt, dass die Acetaldehyd-Dehydrogenase DmpF aus Pseudomonas sp. keine Aktivität gegenüber Crotonyl-CoA zeigte. Daher wurde untersucht, ob Crotonyl-CoA kein Substrat für dieses Enzym darstellt oder eine inhibitorische Wirkung auf das Enzym aufweist. Dazu wurden Butyryl-CoA, welches von der Acetaldehyd-Dehydrogenase umgesetzt wird, und Crotonyl-CoA in unterschiedlichen Verhältnissen gemischt und die Aktivität der PS-DmpF gegen diese Substratmischungen untersucht (Figur 4). Die in Figur 4 zusammengefassten Ergebnisse zeigen, dass die Aktivität der PS-DmpF abnahm, je mehr Crotonyl-CoA im Ansatz enthalten ist. Dies bedeutet, dass Crotonyl-CoA inhibierend auf die Acetaldehyd-Dehydrogenase wirkt.

- inhibitorische Wirkung auf das Enzym: inhibierend
Compound: C/C=C/C(=O)SCCNC(=O)CCNC(=O)[C@H](O)C(C)(C)COP(=O)(O)OP(=O)(O)OC[C@H]1O[C@@H](n2cnc3c(N)ncnc32)[C@H](O)[C@@H]1OP(=O)(O)O [Crotonyl-CoA]
